Consider 4 compounds from patent US12522606B2, “Modified pyrrolo- and pyrazolo-pyrimidines for prostate cancer therapy” (University of Washington, priority 2020, dated 2026).

One may read the EC50 as the concentration at which the effect is half-maximal. For orientation: fraction unbound means the share of the substance not bound to proteins or other matrix. Lower therefore signals extensive binding. One may read the AUC as concentration integrated over time. The low end stands for less exposure, the high end for more exposure. The term Cmax denotes the highest concentration seen after dosing. What is called Tmax is the time at which the peak concentration occurs. As usually defined, the CC50 is the concentration giving 50% cytotoxicity. Low readings indicate harm at low concentration, high ones better tolerance by the cells.

Data set [1] relates to LNCaP cells. The data set is described as follows: Cell death in LNCaP cells, alone or in combination, 24 h (FIG. 6). It is filed as cell-based. As for the experimental part:
FIG. 6 evaluation of Compound 1 and metformin in LNCaP cells. LNCaP cells were treated with Compound 1, oligomycin (Oli), 2-deoxy-d-glucose (2-DG), or metformin (Met), alone or in combination for 24 h.
FIGS. 2-4 provide additional results on the activity of the compounds of the disclosure. […] Co-administration of Compound 1 and metformin is illustrated in FIG. 6. LNCaP cells were treated with Compound 1, oligomycin (Oli), 2-deoxy-d-glucose (2-DG), or metformin (Met), alone or in combination for 24 h. […] None of compounds were sufficient to kill cells under the same conditions on their own.

For data set [2], the system named is ATP levels. The data set can be described thus: Time course of ATP levels, Compound 1 with oligomycin (FIG. 4). Particulars: co-administration with oligomycin. In kind it is cell-based.
The subject of data set [3] is 16D. The data set can be described thus: Proliferation EC50, 16D. The following applies: Table 2. It is filed as cell-based.
Data set [4] can be described thus: Plasma protein binding, rat. It is filed as in vitro ADME.
The test system of data set [5] is PC3. The data set can be described thus: MTT proliferation assay, PC3. Particulars: Homo sapiens. In general terms: Tetrazolium assays rely on reduction of a dye to a coloured formazan, in cell work by metabolically active cells.
The test system of data set [6] is C4-2B. The data set can be described thus: Proliferation EC50, C4-2B. In kind it is cell-based. The following applies: Table 2. Here is the method: (§1) Anti-tumor activity was determined by screening a series of compounds against the castrate-resistant, androgen-receptor-positive, prostate cancer cell line LNCaP95. […] Inhibition of proliferation was determined based on the level of LNCaP95 cell growth suppression using an MTT assay (NAD(P)H-dependent cellular oxidoreductase enzymatic activities)) read at 72 and 96 hours after addition of the compounds. […] Each cell line was be tested in quadruplicate.
(§2) C4-2 and C4-2B3 are derived from LNCaP but have different characteristics. […] LNCaP, C4-2 and C4-2B require androgen receptor but only LNCaP line is androgen sensitive.

Data set [7] is described as follows: Plasma protein binding, mouse. In kind it is in vitro ADME.
The test system of data set [8] is 42D. The data set is described as follows: Proliferation EC50, 42D. In kind it is cell-based. The following applies: Table 2.
For data set [9], the system named is C4-2. The data set can be described thus: Proliferation EC50, C4-2. It is filed as cell-based. The following applies: Table 2. Here is the method:
as §1, §2

Data set [10] has as its system HEPG2. The data set can be described thus: Cell toxicity, HEPG2 hepatoma cell line. The following applies: read-out: EC50 HepG2; Table 2.
Data set [11] has as its system MSKCC-EF1. The data set is described as follows: Proliferation EC50, MSKCC-EF1. It is filed as cell-based. Particulars: Homo sapiens; Table 2. As for the experimental part:
as §1, §2
(§3) RWPE-1 is immortalized benign prostate hypertrophic cell line. […] LAPC4 is AR+ castrate resistant line not LNCaP-based prostate cancer. […] HFF1 is human foreskin fibroblast cell line. NCI-H660 is neuroendocrine (NE) prostate cancer human AR− cell line. MSKCC-EF1 is NE human prostate AR- or nearly negative prostate cancer cell line. MCF7 is human breast cancer cell line. U2OS is human osteosarcoma cell line. HepG2 is hepatoma liver tumor cell line. CRL8155 is lymphoblastoid cell line.

The test system of data set [12] is HFF-1. The data set can be described thus: Proliferation EC50, HFF-1. It is filed as cell-based. The following applies: Homo sapiens, Table 2. As for the experimental part: as §1, §2, §3
The nature of data set [13]: PK Oral (MMV). Particulars: dose 25 mg/kg. It is filed as in vivo.
Data set [14] concerns CRL-8155. The data set can be described thus: Cell toxicity, CRL-8155 lymphoblastoid cell line. Particulars: read-out: EC50 CRL8155; Table 2.
In data set [15] the test system is intracellular ATP in LNCaP95. The data set is described as follows: Intracellular ATP in LNCaP95 (CellTiter-Glo). In kind it is cell-based. The following applies: FIG. 1, without oligomycin. Background: Cellular ATP, detected with luciferase, serves as a proxy for viable cell number.
Method: The relative intracellular levels of ATP were evaluated by CellTiter-Glo® Luminescent Cell Viability Assay. 2-DG is 2-deoxy-d-glucose.
OXPHOS is oxidative phosphorylation; oligo is oligomycin; AA is antimycin A; ETX is etomoxir; FCCP is carbonyl cyanide-4-trifluoromethoxy)phenylhydrazone; and Rot is rotenone.
The test system of data set [16] is LNCaP. The data set can be described thus: MTT proliferation assay, LNCaP. Particulars: Homo sapiens.
Data set [17] in a line: in vitro. The following applies: human, HepG2 hepatoma cell line.
Data set [18] has as its system LNCaP95. The data set can be described thus: MTT proliferation assay, LNCaP95. It is filed as cell-based. Particulars: Homo sapiens, LNCaP-95. Here is the method:
as §1

The target of data set [19] is hERG (Homo sapiens, UniProt Q12809). The data set is described as follows: hERG. Particulars: Table 1; last column beside CC50 (μM), own unit not clearly printed. A general note: Block of hERG is tested as a sign of cardiac risk.
Sequence of hERG (Q12809 whole entry): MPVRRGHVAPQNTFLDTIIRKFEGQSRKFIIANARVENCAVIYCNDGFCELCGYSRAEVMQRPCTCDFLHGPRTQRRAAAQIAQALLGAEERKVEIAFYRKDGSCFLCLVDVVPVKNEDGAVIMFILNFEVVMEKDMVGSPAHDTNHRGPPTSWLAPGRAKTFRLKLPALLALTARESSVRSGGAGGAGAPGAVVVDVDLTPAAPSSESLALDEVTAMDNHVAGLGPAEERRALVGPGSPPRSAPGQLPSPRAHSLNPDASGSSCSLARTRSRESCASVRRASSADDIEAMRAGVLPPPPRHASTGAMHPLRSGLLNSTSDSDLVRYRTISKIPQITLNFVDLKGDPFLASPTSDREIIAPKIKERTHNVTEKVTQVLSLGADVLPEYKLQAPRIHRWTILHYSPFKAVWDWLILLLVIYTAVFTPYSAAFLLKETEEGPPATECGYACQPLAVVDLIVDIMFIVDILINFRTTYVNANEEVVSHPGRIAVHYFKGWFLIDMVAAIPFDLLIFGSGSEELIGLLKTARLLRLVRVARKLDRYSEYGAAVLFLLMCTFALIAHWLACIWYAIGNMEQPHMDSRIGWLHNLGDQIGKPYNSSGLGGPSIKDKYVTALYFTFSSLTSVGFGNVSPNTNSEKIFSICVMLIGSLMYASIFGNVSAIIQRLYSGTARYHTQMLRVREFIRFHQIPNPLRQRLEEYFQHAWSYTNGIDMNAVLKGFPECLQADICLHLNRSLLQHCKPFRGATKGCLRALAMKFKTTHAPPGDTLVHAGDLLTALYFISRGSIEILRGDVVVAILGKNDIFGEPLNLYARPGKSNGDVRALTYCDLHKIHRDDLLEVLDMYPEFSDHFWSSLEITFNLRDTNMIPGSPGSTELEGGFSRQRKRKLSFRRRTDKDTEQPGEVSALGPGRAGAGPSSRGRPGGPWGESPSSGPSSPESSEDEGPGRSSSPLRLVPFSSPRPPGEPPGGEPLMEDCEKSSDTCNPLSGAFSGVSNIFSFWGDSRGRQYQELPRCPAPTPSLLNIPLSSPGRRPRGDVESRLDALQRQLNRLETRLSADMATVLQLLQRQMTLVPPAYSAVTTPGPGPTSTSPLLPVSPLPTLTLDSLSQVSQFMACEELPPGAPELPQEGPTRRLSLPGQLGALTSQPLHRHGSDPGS
Data set [20] deals with NCI-H660. The data set can be described thus: Proliferation EC50, NCI-H660. In kind it is cell-based. Particulars: Homo sapiens, Table 2. As for the experimental part: as §1, §2, §3
The subject of data set [21] is U2OS. The data set is described as follows: Proliferation EC50, U2OS. It is filed as cell-based. The following applies: Homo sapiens, Table 2. Here is the method:
as §1, §2, §3

Data set [22] relates to DU145. The data set can be described thus: Proliferation EC50, DU145. In kind it is cell-based. The following applies: Homo sapiens, DU-145; Table 2.
Data set [23] has as its system RWPE-1. The data set can be described thus: Proliferation EC50, RWPE-1. It is filed as cell-based. The following applies: Homo sapiens, Table 2. As for the experimental part:
as §1, §2, §3

Data set [24] concerns LAPC4. The data set is described as follows: Proliferation EC50, LAPC4. It is filed as cell-based. Particulars: Homo sapiens, Table 2. As for the experimental part: as §1, §2, §3
A short description of data set [25]: Cell death when mitochondria respiration is blocked (FIGS. 5A-5C). It is filed as cell-based.
Data set [26] deals with APIPC. The data set is described as follows: Proliferation EC50, APIPC. It is filed as cell-based. The following applies: Table 2.
A short description of data set [27]: Plasma protein binding, human. In kind it is in vitro ADME.
The nature of data set [28]: in vitro. The following applies: human, CRL-8155 lymphoblastoid cell line.
The subject of data set [29] is MCF7. The data set can be described thus: Proliferation EC50, MCF7. In kind it is cell-based. Particulars: Homo sapiens, Table 2. Here is the method: as §1, §2, §3
In data set [30] the test system is 42F. The data set can be described thus: Proliferation EC50, 42F. It is filed as cell-based. Particulars: Table 2.
Data set [31] deals with prostate cancer tumor. Particulars: 60 mg/kg, 2× daily; cited from earlier work.
For data set [32] the following is noted: background statement; cited from earlier work.
The conditions of data set [33]: background statement; cited from earlier work. The source holds these as a separate data set.

Read-outs that look alike come from different tables or passages of the source.

For `O=CC[C@@H](O)[C@H](O)[C@H](O)CO` [Example 2-DG, 2-deoxy-d-glucose, reference compound], the “cell death in combination with oligomycin or metformin” value in [1] is recorded as “cause cell death”.
For `CNc1ncnc2c1c(-c1ccc3cc(OC4CC4)ccc3c1)nn2CC(C)(C)O` [Example 1, 1-(3-(6-cyclopropoxynaphthalen-2-yl)-4-(methylamino)-1H-pyrazolo[3,4-d]pyrimidin-1-yl)-2-methylpropan-2-ol], in data set [2], the “earliest time at which ATP levels are altered” value is 10 min. For the same compound, the half-maximal effective concentration (EC50) in data set [3] is 10 µM; in data set [5] (PC-3, read-out: EC50 PC3), above 20 µM; in data set [5] (read-out: EC50 PC3) it was above 20 µM; in data set [6] it was 12 µM; in [8] it was 10 µM; in [9], 12 µM. Moreover, the EC50 is above 40 µM in data set [10]; 5 µM in data set [11]; above 20 µM in data set [12]; above 40 µM in data set [14]; 8 µM in data set [16] (read-out: EC50 LNCaP); 5 µM in data set [18] (Table 1, LNCaP95 (AR+ PCa), unit inferred). Also, the EC50 in data set [20] is 10 µM; in data set [21] it was above 20 µM; in data set [22], above 20 µM; in data set [23], above 20 µM; in [24], 7 µM; in [26], 10 µM. Also, the results for the half-maximal effective concentration (EC50) in data set [29] and in data set [30] were 8 µM and 20 µM, respectively. In addition, the fraction unbound in [4] was 0.04; in data set [7], 0.012; in data set [27], 0.007. Further, the inhibition at 10 µM in data set [5] (PC-3, read-out: MTT % inhib @ 10 μM PC3) is 16.8%; in data set [16] (read-out: MTT % inhib @ 10 μM LNCaP), 35.4%; in [18] (read-out: MTT % inhib @ 10 μM LNCaP95), 51.5%. Also, in data set [13], the AUC is 28935 µmol·min/L. Also, in data set [13] (in vivo), the concentration peaked (Cmax) at 34 µM. In addition, the Tmax in data set [13] (in vivo) is 3 h. In addition, the “change in ATP levels, compound alone” value in data set [15] is given as “no change”. Moreover, the half-maximal cytotoxic concentration (CC50) in [17] and in data set [28] was above 80 µM each time. In data set [19], this compound showed a hERG of 13.9. The “cell death when mitochondria respiration is blocked” value in data set [25] was “induces cell death”. Further, the “cell death in combination with oligomycin or metformin” value in data set [1] is reported as “cause cell death”.
Take `Fc1ccc(Cl)cc1-c1nc(Nc2ccncc2)c2nccnc2n1` [SD-208]: in data set [31], the “prostate cancer tumor growth in vivo” value is recorded as “decrease in prostate cancer tumor growth”.
With `CC(C)(C)n1nc(-c2cccc3ccccc23)c2c(N)ncnc21` [Example 1NA-PP1], the metabolism result in data set [32] is recorded as “quickly metabolized”. For the same compound, the solubility entry in data set [33] is “low solubility”.
